The text below walks through data of the RepoRT retention time repository.

SMILES strings stand for the structures.

This data set in a line: HILIC, Waters ACQUITY UPLC BEH Amide, 100 × 2.1 mm, 1.7 µm; A: water + 0.125% formic acid + 10 mM ammonium formate; B: 5% water + 95% acetonitrile + 0.125% formic acid + 10 mM ammonium formate; gradient (min/%B) 0/100 2/100 7.7/70 9.5/40 10.25/30 12.75/100 17/100. The note with it: stereoisomer not certain.
Regarding `COc1cc2nc(N3CCN(C(=O)c4ccco4)CC3)nc(N)c2cc1OC` [Prazosin], the LC retention time was determined as 3.75 min.
To `NC(=O)CCC(NC(=O)C1CCCN1)C(=O)O` (stereo not drawn) [Pro-Gln] belongs 8.75 min; to `CNNCc1ccc(C(=O)NC(C)C)cc1` [Procarbazine], 4.61 min; to `CN1CCN(CCCN2c3ccccc3Sc3ccc(Cl)cc32)CC1` [Prochlorperazine], 2.56 min.
Under `CC(=O)C1CCC2C3CCC4=CC(=O)CCC4(C)C3CCC12C` (stereo not drawn) [Progesterone] stands 0.97 min.
To `O=C(O)C1CC(O)CN1C(=O)C1CCCN1` (stereo not drawn) [Proline-hydroxyproline] belongs 8.6 min; to `O=C(O)C1CCCN1` (stereo not drawn) [Proline], 7.83 min.
For the molecule `CCC(=O)Nc1ccc(Cl)c(Cl)c1` [Propanil], the LC retention time is 1.08 min.
To `CCC(=O)OC(CC(=O)[O-])C[N+](C)(C)C` (stereo not drawn) [Propionylcarnitine] belongs 6.41 min.
On to `CCC(=O)OC(Cc1ccccc1)(c1ccccc1)C(C)CN(C)C` (stereo not drawn) [Propoxyphene], for which the LC retention time came out at 2.01 min.
Take `COc1cc(C=Cc2ccc(O)cc2)cc(OC)c1` [Pterostilbene]: the LC retention time turned out to be 0.98 min.
Under `c1ncc2[nH]cnc2n1` [Purine] stands 2.44 min; under `NCCCCN` [Putrescine], 9.3 min; under `CCOC(=O)COc1cc(-c2nn(C)c(OC(F)F)c2Cl)c(F)cc1Cl` [Pyrafluefen-ethyl], 1.02 min.
Under `c1ccncc1` [Pyridine] stands 6.63 min; under `Cc1ncc(COP(=O)(O)O)c(C=O)c1O` [Pyridoxal-5-phosphate], 7.7 min; under `Cc1ncc(CO)c(C=O)c1O` [Pyridoxal], 2.18 min.
To `Cc1ncc(CO)c(CN)c1O` [Pyridoxamine] belongs 8.1 min; to `Cc1ncc(CO)c(CO)c1O` [Pyridoxine], 3.78 min; to `O=C1CCC(C(=O)O)N1` (stereo not drawn) [Pyroglutamic acid], 8.71 min.
`O=C(O)c1ccc[nH]1` [Pyrrole-2-carboxylic acid]: the LC retention time was 5.66 min.
`CC(=O)OCC1OC(Oc2c(-c3ccc(O)c(O)c3)oc3cc(O)cc(O)c3c2=O)C(O)C(O)C1O` (stereo not drawn) [Quercetin-3-O-beta-glucopyranosyl-6'-acetate]: the LC retention time came to 4.61 min.
To `CC1OC(Oc2c(-c3ccc(O)c(O)c3)oc3cc(O)cc(O)c3c2=O)C(O)C(O)C1O` (stereo not drawn) [Quercetin-3-ramnoside] belongs 4.7 min; to `OCCOCCN1CCN(C2=Nc3ccccc3Sc3ccccc32)CC1` [Quetiapine], 2.54 min.
To `O=C(O)c1cccnc1C(=O)O` [Quinolinic acid] belongs 2.16 min; to `COCCCOc1ccnc(CS(=O)c2nc3ccccc3[nH]2)c1C` (stereo not drawn) [Rabeprazole], 2.44 min.
To `CC(=O)SCC(Cc1ccccc1)C(=O)NCC(=O)OCc1ccccc1` (stereo not drawn) [Racecadotril] belongs 0.95 min.
Consider `CCN1CCCC1CNC(=O)c1c(O)c(Cl)cc(Cl)c1OC` (stereo not drawn) [Raclopride], for which the LC retention time amounted to 2.11 min.
To `OCC1OC(OCC2OC(OC3(CO)OC(CO)C(O)C3O)C(O)C(O)C2O)C(O)C(O)C1O` (stereo not drawn) [Raffinose] belongs 9.17 min; to `Cc1nc2ccc(CN(C)c3ccc(C(=O)NC(CCC(=O)O)C(=O)O)s3)cc2c(=O)[nH]1` (stereo not drawn) [Raltitrexed], 7.35 min.
Under `CCOC(=O)C(CCc1ccccc1)NC(C)C(=O)N1C(C(=O)O)CC2CCCC21` (stereo not drawn) [Ramipril] stands 1.4 min; under `CNC(=C[N+](=O)[O-])NCCSCc1ccc(CN(C)C)o1` [Ranitidine], 5.18 min.
To `COc1ccccc1OCC(O)CN1CCN(CC(=O)Nc2c(C)cccc2C)CC1` (stereo not drawn) [Ranolazine] belongs 2.79 min.
On to `CC(Cc1ccccc1)(NC(=O)CN)c1ccccc1` (stereo not drawn) [Remacemide], for which the LC retention time worked out at 4.41 min.
`CCOc1cc(CC(=O)NC(CC(C)C)c2ccccc2N2CCCCC2)ccc1C(=O)O` (stereo not drawn) [Repaglinide]: the LC retention time was determined as 1.01 min.
Under `Oc1ccc(C=Cc2cc(O)cc(O)c2)cc1` [Resveratrol] stands 1.41 min; under `CC(C=CC1=C(C)CCCC1(C)C)=CC=CC(C)=CC(=O)O` [Retinoic acid], 1.11 min; under `Cc1cc2nc3c(=O)[nH]c(=O)nc-3n(CC(O)C(O)C(O)CO)c2cc1C` (stereo not drawn) [Riboflavin], 6 min.
To `COC1C=COC2(C)Oc3c(C)c(O)c4c(O)c(c5c(c4c3C2=O)=NC2(CCN(CC(C)C)CC2)N=5)NC(=O)C(C)=CC=CC(C)C(O)C(C)C(O)C(C)C(OC(C)=O)C1C` (stereo not drawn) [Rifabutin] belongs 2.76 min.
Turning to `COC1C=COC2(C)Oc3c(C)c(O)c4c(O)c(c(C=NN5CCN(C6CCCC6)CC5)c(O)c4c3C2=O)NC(=O)C(C)=CC=CC(C)C(O)C(C)C(O)C(C)C(OC(C)=O)C1C` (stereo not drawn) [Rifapentine], the LC retention time is 1.81 min.
Under `COC1C=COC2(C)Oc3c(C)c(O)c4c(O)c(c5c(nc6cc(C)ccn65)c4c3C2=O)NC(=O)C(C)=CC=CC(C)C(O)C(C)C(O)C(C)C(OC(C)=O)C1C` (stereo not drawn) [Rifaximin] stands 1.18 min.
Consider `Nc1nc2ccc(OC(F)(F)F)cc2s1` [Riluzole], for which the LC retention time worked out at 1.03 min.
To `CC1CN(CCCn2c3ccccc3c3ccccc32)CC(C)N1` (stereo not drawn) [Rimcazole] belongs 2.87 min; to `Cc1nc2n(c(=O)c1CCN1CCC(c3noc4cc(F)ccc34)CC1)CCCC2` [Risperidone], 3.52 min; to `CC(C)c1nc(CN(C)C(=O)NC(C(=O)NC(Cc2ccccc2)CC(O)C(Cc2ccccc2)NC(=O)OCc2cncs2)C(C)C)cs1` (stereo not drawn) [Ritonavir], 1.15 min.
For `CN(C)CCc1c[nH]c2ccc(Cn3cncn3)cc12` [Rizatriptan], the LC retention time was 5.11 min.
Consider `CS(=O)(=O)c1ccc(C2=C(c3ccccc3)C(=O)OC2)cc1` [Rofecoxib], for which the LC retention time is 0.97 min.
On to `COc1ccc(C2CNC(=O)C2)cc1OC1CCCC1` (stereo not drawn) [Rolipram], for which the LC retention time worked out at 1.12 min.
To `CCCN1CCCCC1C(=O)Nc1c(C)cccc1C` (stereo not drawn) [Ropivacaine] belongs 2.49 min.
Take `CN(CCOc1ccc(CC2SC(=O)NC2=O)cc1)c1ccccn1` (stereo not drawn) [Rosigltazone]: the LC retention time was determined as 1.24 min.
Under `CC(=O)OCC(=O)NCCCOc1cccc(CN2CCCCC2)c1` [Roxane] stands 3.01 min; under `CN1CCN(c2c(F)cc3c(=O)c(C(=O)O)cn4c3c2SCC4)CC1` [Rufloxacin], 4.65 min.
To `CC1OC(OCC2OC(Oc3c(-c4ccc(O)c(O)c4)oc4cc(O)cc(O)c4c3=O)C(O)C(O)C2O)C(O)C(O)C1O` (stereo not drawn) [Rutin] belongs 6.6 min.
Under `Nc1ncnc2c1ncn2C1OC(CSCCC(N)C(=O)O)C(O)C1O` (stereo not drawn) [S-Adenosyl-homocysteine] stands 8.85 min; under `C[S+](CCC(N)C(=O)[O-])CC1OC(n2cnc3c(N)ncnc32)C(O)C1O` (stereo not drawn) [S-Adenosyl-methionine], 9.7 min; under `CN=C(NC)NCCCC(N)C(=O)O` (stereo not drawn) [SDMA], 8.49 min.
With `OCc1ccccc1OC1OC(CO)C(O)C(O)C1O` (stereo not drawn) [Salicin], the LC retention time is 4.48 min.
To `OCc1cc(C(O)CNCCCCCCOCCCCc2ccccc2)ccc1O` (stereo not drawn) [Salmeterol] belongs 4.75 min; to `CC(C)(C)NC(=O)C1CC2CCCCC2CN1CC(O)C(Cc1ccccc1)NC(=O)C(CC(N)=O)NC(=O)c1ccc2ccccc2n1` (stereo not drawn) [Saquinavir], 2.85 min.
To `CNCC(=O)O` [Sarcosine] belongs 7.82 min.
As for `CN1C2CC(OC(=O)C(CO)c3ccccc3)CC1C1OC12` (stereo not drawn) [Scopolamine], the LC retention time is 3.75 min.
On to `COc1cc2ccc(=O)oc2cc1O` [Scopoletin], for which the LC retention time was found to be 1.16 min.
Under `Cc1ncc([N+](=O)[O-])n1CC(C)O` (stereo not drawn) [Secnidazole] stands 1.12 min.
To `C#CCN(C)C(C)Cc1ccccc1` (stereo not drawn) [Selegiline] belongs 1.5 min.
Turning to `NC(CO)C(=O)NC(CCC(=O)O)C(=O)O` (stereo not drawn) [Ser-Glu], the LC retention time was determined as 9.65 min.
To `NC(CO)C(=O)NC(Cc1ccc(O)cc1)C(=O)O` (stereo not drawn) [Ser-Tyr] belongs 8.44 min; to `NC(CO)C(=O)O` (stereo not drawn) [Serine], 8.73 min.
Under `NCCc1c[nH]c2ccc(O)cc12` [Serotonin] stands 1.44 min; under `CNC1CCC(c2ccc(Cl)c(Cl)c2)c2ccccc21` (stereo not drawn) [Sertraline], 2.74 min.
On to `CC(C)CC(N(C)C)C1(c2ccc(Cl)cc2)CCC1` (stereo not drawn) [Sibutramine], for which the LC retention time turned out to be 1.86 min.
To `COc1cc(C=CC(=O)O)cc(OC)c1O` [Sinapic acid] belongs 1.41 min; to `O=P(O)(O)OCC(O)C(O)C(O)C(O)CO` (stereo not drawn) [Sorbitol-6-phosphate], 9.75 min.
For the molecule `CC(C)NCC(O)c1ccc(NS(C)(=O)=O)cc1` (stereo not drawn) [Sotalol], the LC retention time came to 4.87 min.
To `NCCCCNCCCN` [Spermidine] belongs 6.98 min; to `NCCCNCCCCNCCCN` [Spermine], 7.24 min; to `C[N+]1(C)CCCC1C(=O)O` (stereo not drawn) [Stachydrine], 7.1 min.
To `CC12Cc3cn[nH]c3CC1CCC1C2CCC2(C)C1CCC2(C)O` (stereo not drawn) [Stanozolol] belongs 1.19 min; to `Cc1cn(C2C=CC(CO)O2)c(=O)[nH]c1=O` (stereo not drawn) [Stavudine], 1.62 min.
